{"source": "patent US20050215531A1", "about": "“Use of edg receptor binding agents in cancer” (priority 2002, published 2005)", "test_system": "HUVEC", "test": "S1P-mediated HUVEC tube formation assay", "assay_type": "cell-based, human", "conditions": "branching points in 3 independent fields at 4× magnification", "experimental": "For the tube formation assay, HUVEC from passage 2-8 are used and are never greater than 70% confluent before harvesting. Cells are prepared for the assay by washing with Herpes Balanced Saline Solution (HBSS from Clonetics) and then trypsinizing with Trypsin/EDTA (0.25 mg/ml, from Clonetics). After approximately 90% of the cells have lifted off the plate, an equal volume of Trypsin Neutralizing Solution (TNS from Clonetics) is added and the cells are collected into a conical tube containing at least 10 ml of EBM-2 (Clonetics)+0.1% BSA (Sigma) media Cells are centrifuged at 1000 rpm for 5 minutes and the supematant is removed and replaced with 5 ml of fresh EBM-2+0.1% BSA. Cells are counted using a hemacytometer and the volume of the cell suspension is adjusted to achieve a concentration of 500,000 cells/ml. Conical tubes are prepared with test compounds at 100 nM, and pertussin toxin (PTx) at 10 ng/ml in each, then 1 ml of the cell suspension is added to each tube. Tubes are then incubated for ½ hour at 37° C., 5% CO2. The migration assay is performed using Fluoro-Blok 24-Multiwell insert Plates coated with fibronectin (8 μm pore size, Falcon #351147) instead of the individual inserts in a 24-well plate. Cells and test compounds are prepared and pre-incubated as described above, then 100 μl is added to each approriate well in the Insert Plate. 300 μl of the EBM-2+2% charcoastripped media without S1P is added to the bottoms of the wells marked for no stimulation (−), and 300 μl of the media containing S1P (500 nM) is added to the bottoms of the wells marked for stimulation (+). The plate is then incubated for 4 hours at 37° C., 5% CO2. […]\nAfter incubation, the plate is read on a Cytofluor II at an excitation of 485 nm and emission of 530 nm. The Fluoro-Blok coating in the inserts allows only the cells that have migrated to the bottom to be counted. […]\nTube formation is quantitated by counting the number of branching points (two independent cords connecting) in 3 independent fields at 4× magnification.", "data": [{"smiles": "CCCCCCCCc1ccc(CCC(N)(CO)COP(=O)(O)O)cc1", "note": "(centres unmarked) [Compound A-phosphate]", "values": [{"measurement": "Branching Points", "setting": "treatment + S1P", "value": "14 ± 7"}, {"measurement": "Branching Points", "setting": "treatment alone", "value": "48 ± 15"}]}]}
